Source: US7238374B2, “Process and substances for the release of a growth-regulating factor from endothelial cells” (priority 1998, dated 2007)

How the values were obtained:
[1] = Partition between octanol and aqueous phosphate buffer pH 7; format: physicochemical
Experimental: Cells in a culture medium can be viewed as a two-phase system consisting of water and lipids. The distribution of the alkaloids in cell cultures and in mixtures of octanol and water was studied. […] The alkaloids were partitioned between equal volumes of octanol and aqueous phosphate buffer pH 7 (0.01 M) at 20° C. The concentrations c of the alkaloids were determined by HPLC analysis and the coefficients of distribution [formula] were calculated.

[2] = stimulant IMM-2418 (1.1 μM)
Experimental: A RPMI-1640 culture medium (Sigma-Aldrich Company, St. Louis, USA) completed with 10% by volume fetal calf serum, 2 mM glutamin, 50 units/ml penicillin G, and 50 μg/ml streptomycin was used.

[3] = Equilibria of isomers in an octanol-water two-phase system; format: physicochemical; conditions: octanol-water system (1:1) with mitraphylline and isomitraphylline, approximately pH 5
Source text: As expected the equilibrium of isomers in a two-phase system (1aq ? 1org, 2aq ? 2org, FIG. 3) depends not only on the pH value of the aqueous phase but also on the amount and nature of the organic phase, For an example, the equilibria of mitraphylline and isomitraphylline in an octanol-water system (1:1) at pH values from 3 to 7 are shown (FIG. 4). It can be seen that in the pH range from 4 to 7 isomitraphylline is predominant in the octanol phase, with a maximum of 94 mol-% at approximately pH 5. However, below pH 3 mitraphylline begins to prevail in the aqueous phase. At no pH value is isomitraphylline produced in the aqueous phase to a reasonable extent. Therefore, the distribution of the isomers in a 2-phase system is clearly different compared to the situation in a purely aqueous solution.

[4] = octanol / aqueous phosphate buffer pH 7 (0.01 M), equal volumes, 20° C.

SMILES | log KO/W (common logarithm of the partition coefficient) [1, 4] | log KO/W (common logarithm of the partition coefficient) ([1]; pH 7) | further results
COC(=O)C1=CO[C@@H](C)[C@@H]2CN3CC[C@]4(C(=O)Nc5ccccc54)[C@H]3C[C@H]12 [Uncarine F] | 3.1 |  | 
COC(=O)C1=CO[C@@H](C)[C@@H]2CN3CC[C@@]4(C(=O)Nc5ccccc54)[C@@H]3C[C@H]12 [Isopteropodine] |  | 3.2 | 
COC(=O)C1=CO[C@@H](C)[C@@H]2CN3CC[C@@]4(C(=O)Nc5ccccc54)[C@H]3C[C@H]12 [Speciophylline] |  | 1.4 | 
CC[C@H]1CN2CC[C@]3(C(=O)Nc4ccccc43)[C@@H]2C[C@@H]1/C(=C\OC)C(=O)OC [Rhynchophylline] | 2.7 |  | alkaloid concentration in RPMI-1640 nutrient medium, 7 Days [2]: 0.13 mg/L; alkaloid concentration in RPMI-1640 nutrient medium, Start [2]: 0.15 mg/L
COC(=O)C1=CO[C@@H](C)[C@H]2CN3CC[C@@]4(C(=O)Nc5ccccc54)[C@@H]3C[C@H]12 [Isomitraphylline] |  | 2.8 | equilibrium concentration in the octanol phase, maximum [3]: 94 mol-%
CC[C@H]1CN2CC[C@@]3(C(=O)Nc4ccccc43)[C@@H]2C[C@@H]1/C(=C\OC)C(=O)OC [Isorhynchophylline] | 3.1 |  | alkaloid concentration in RPMI-1640 nutrient medium, 7 Days [2]: 0.27 mg/L; alkaloid concentration in RPMI-1640 nutrient medium, Start [2]: 0.27 mg/L
COC(=O)C1=CO[C@@H](C)[C@H]2CN3CC[C@]4(C(=O)Nc5ccccc54)[C@@H]3C[C@H]12 [Mitraphylline] |  | 2.5 | 
COC(=O)C1=CO[C@@H](C)[C@@H]2CN3CC[C@]4(C(=O)Nc5ccccc54)[C@@H]3C[C@H]12 [Pteropodine] |  | 2.9 | 
